The results in this text go back to patent publication US10112918B2, “15-oxospiramilactone derivatives, preparation method and uses thereof” (Kunming Institute of Botany, The Chinese Academy of Sciences, priority 2013, dated 2018).

Assay type in all cases: cell-based
Assay [1] relates to MCF-7 (human breast cancer cells). The assay can be described thus: MTT inhibition of tumor cell growth, MCF-7. As to conditions: Homo sapiens, MCF7, 48 h. Summed up: (§1)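 IC50 derived by Reed and Muench two-point method from A595 after MTT (4 h) and overnight 10% SDS solubilization. Compound treatment lasted 48 h at 37 °C, screened at 40 μM then 5 concentrations for actives, in triplicate; 5000-10000 cells/well in 10% FBS medium.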

Assay [2] relates to SW-480 (human colon cancer cells). Put plainly: MTT inhibition of tumor cell growth, SW-480. As to conditions: Homo sapiens, SW480, 48 h. The gist of the method:
as §1

Assay [3] relates to Wnt signaling pathway (Top-Flash reporter gene). Put plainly: Top-Flash Wnt reporter gene assay in HEK293T cells with Wnt3a conditioned medium. As to conditions: Homo sapiens, HEK-293T, 6 h, HEK293T, Wnt3a conditioned medium, 6 h. Summed up:
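IC50 is the concentration giving relative residual reporter activity of 0.5 by 4-parameter logistic fit, after subtracting conditioned-medium DMSO background and normalizing to Wnt-induced signal. Luciferase read from HEK293T carrying TOP-flash and GFP internal standard, exposed 6 h to L-cell Wnt3a conditioned medium plus compound.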
(In general: A reporter such as luciferase makes a cellular process visible.)

Assay [4] relates to A-549 (Human lung adenocarcinoma cells). The assay can be described thus: MTT inhibition of tumor cell growth, A-549. As to conditions: Homo sapiens, A549, 48 h. The gist of the method: as §1
For assay [5], the system named is SMMC-7721 (human hepatoma cells). The assay can be described thus: MTT inhibition of tumor cell growth, SMMC-7721. As to conditions: Homo sapiens, SMMC-7721, 48 h. The gist of the method:
as §1

The subject of assay [6] is HL-60 (human promyelocytic leukemia cells). Put plainly: MTT inhibition of tumor cell growth, HL-60. As to conditions: Homo sapiens, HL-60, 48 h. Summed up:
as §1

[7] abbreviates: Table 1, 7-hydroxy derivatives of S-3.
Where [8] appears, read: Table 1, 7-hydroxy derivatives of S-3, read-out: IC50 SW-480.
[9] abbreviates: Table 7 (second), derivatives modified on 7-hydroxyl of S-3, read-out: IC50 (μM), inhibitory activity on the Wnt signaling pathway.
[10] abbreviates: Table 2, derivatives having potential Michael reaction acceptor.
Setting [11] is: Table 2, derivatives having potential Michael reaction acceptor, read-out: IC50 SW-480.
[12] abbreviates: Table 9, read-out: IC50(μM), inhibitory activity on the Wnt signaling pathway.
Setting [13] is: Table 7 (first), alkaloid derivatives.

Read-outs that look alike come from different tables or passages of the source.

By IC50 is commonly meant the point on the concentration scale where inhibition reaches its midpoint. For `C=C1C(=O)C23CC[C@H]1CC2[C@@]12CCC[C@@](C)(COC1=O)C2C[C@H]3OC(=O)c1ccc([N+](=O)[O-])cc1` (stereo partly drawn) [Compound 1k], the half-maximal inhibitory concentration (IC50) in assay [1] (setting [7]) was 0.8 µM; in assay [2] (setting [8]), 0.69 µM; in assay [3] (setting [9]), 10.7 ± 0.39 µM; in assay [4] (setting [7]), 1.05 µM; in assay [5] (setting [7]) it was 2.89 µM; in assay [6] (setting [7]) it was 0.86 µM.

Take `C=C1C(=O)C23CC[C@H]1CC2[C@@]12CCC[C@@](C)(COC1=O)C2C[C@H]3OS(=O)(=O)Cc1ccccc1` (stereo partly drawn) [Compound 1r]: the IC50 stood at 2.06 µM in assay [1] (setting [7]); 1.17 µM in assay [2] (setting [8]); 8.92 ± 0.98 µM in assay [3] (setting [9]); 0.49 µM in assay [4] (setting [7]); 0.57 µM in assay [5] (setting [7]); 0.58 µM in assay [6] (setting [7]).

On to `C[C@]12CCC[C@@]3(C(=O)OC1)C1C[C@@H]4CCC1(C(=O)[C@H]4CN1CCOCC1)[C@H](O)CC23` (stereo partly drawn) [Compound 75], for which the IC50 in assay [1] (setting [10]) was 4.12 µM; in assay [2] (setting [11]), 8.01 µM; in assay [3] (setting [12]) it was over 60 µM; in assay [4] (setting [10]), 3.64 µM; in assay [5] (setting [10]), 5.97 µM; in assay [6] (setting [10]), 3.78 µM.

With `C[C@]12CCC[C@@]3(C(=O)OC1)C1C[C@@H]4CCC1(C(=O)[C@@H]4CN1CCOCC1)[C@H](O)CC23` (stereo partly drawn) [Compound 76], the IC50 was 5.96 µM in assay [1] (setting [10]); 7.69 µM in assay [2] (setting [11]); over 60 µM in assay [3] (setting [12]); 4.04 µM in assay [4] (setting [10]); 13.1 µM in assay [5] (setting [10]); 5.28 µM in assay [6] (setting [10]).

As for `C=C1C(=O)[C@]23CC[C@H]1CC2[C@@]12CCC[C@@](C)(C(=O)N4CCO[C@H]41)C2C[C@H]3O` (stereo partly drawn) [Compound 78], the IC50 in assay [1] (setting [13]) was 1.12 µM; in assay [2] (Table 7 (first), alkaloid derivatives, read-out: IC50 SW-480), 2.81 µM; in assay [3] (Table 11, read-out: IC50 (μM), inhibitory activity on the Wnt signaling pathway), 28.7 ± 0.97 µM; in assay [4] (setting [13]) it was 3.09 µM; in assay [5] (setting [13]), 2.63 µM; in assay [6] (setting [13]) it was 2.73 µM.
